These results are taken from patent publication US8471005B2 (Cephalon, Inc., priority 2008, dated 2013).

The target in one assay is T1, ALK (Homo sapiens, UniProt Q9UM73).
T1 construct: host or cells: baculovirus expression system
As to the kind of experiment: ALK Kinase Assay (ELISA/TRF, PLC-γ substrate). In kind it is biochemical. The settings on record: ALK kinase inhibition, 1 μM ATP; read-out: ALK Potency. In short, it runs like this: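 Read-out is time-resolved fluorescence from a Eu-N1-labeled PT66 antibody that binds phosphorylated PLC-γ, the substrate coated at 10 μg/mL in TBS. ALK at 30 ng/ml starts the reaction, which runs 15 minutes at 37° C.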

The target in another assay is T2, JAK2 (Homo sapiens, UniProt O60674).
T2 construct: host or cells: baculovirus expression system
T2 sequence (O60674 whole entry): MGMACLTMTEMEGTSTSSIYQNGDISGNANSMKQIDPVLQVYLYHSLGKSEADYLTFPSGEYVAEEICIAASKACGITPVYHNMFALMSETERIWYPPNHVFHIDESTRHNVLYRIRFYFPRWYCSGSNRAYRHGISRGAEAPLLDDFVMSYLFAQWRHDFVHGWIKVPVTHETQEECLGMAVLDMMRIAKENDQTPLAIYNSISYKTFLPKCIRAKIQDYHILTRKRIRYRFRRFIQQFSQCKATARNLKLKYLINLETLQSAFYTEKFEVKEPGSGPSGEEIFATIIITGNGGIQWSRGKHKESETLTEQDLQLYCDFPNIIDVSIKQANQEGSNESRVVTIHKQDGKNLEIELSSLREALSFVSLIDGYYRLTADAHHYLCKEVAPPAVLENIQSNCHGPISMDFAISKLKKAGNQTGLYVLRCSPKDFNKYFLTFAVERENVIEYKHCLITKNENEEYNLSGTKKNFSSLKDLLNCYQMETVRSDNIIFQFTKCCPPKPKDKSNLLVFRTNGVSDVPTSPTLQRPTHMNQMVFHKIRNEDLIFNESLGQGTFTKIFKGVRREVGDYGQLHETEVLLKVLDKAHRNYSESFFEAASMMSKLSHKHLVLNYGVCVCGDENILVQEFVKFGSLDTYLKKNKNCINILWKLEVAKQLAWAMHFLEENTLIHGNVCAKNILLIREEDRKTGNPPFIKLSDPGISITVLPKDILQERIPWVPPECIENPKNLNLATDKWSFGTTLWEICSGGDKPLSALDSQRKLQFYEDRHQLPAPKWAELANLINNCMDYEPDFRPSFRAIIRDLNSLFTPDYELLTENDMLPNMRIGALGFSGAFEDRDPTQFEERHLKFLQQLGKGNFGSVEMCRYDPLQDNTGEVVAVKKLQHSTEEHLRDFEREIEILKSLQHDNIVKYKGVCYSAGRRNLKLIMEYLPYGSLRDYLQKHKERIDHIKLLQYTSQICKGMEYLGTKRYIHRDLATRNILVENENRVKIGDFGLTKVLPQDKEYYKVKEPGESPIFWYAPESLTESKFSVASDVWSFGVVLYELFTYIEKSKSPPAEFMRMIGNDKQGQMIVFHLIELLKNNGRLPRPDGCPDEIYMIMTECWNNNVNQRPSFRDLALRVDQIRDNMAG
As to the kind of experiment: Recombinant Human JAK2 Kinase Assay (TRF). In kind it is biochemical. The settings on record: JAK2 kinase inhibition, 0.2 μM ATP; read-out: JAK2 Potency. In short, it runs like this: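 Baculovirus-expressed JAK2 (15 ng/ml) phosphorylated a biotinylated 15-mer peptide captured on Neutravidin-coated plates, in 20 mM HEPES pH 7.2 with 0.2 μM ATP, 1 mM MnCl2, 0.1% BSA and 2.5% DMSO. Reaction ran 20 min at room temperature; phosphopeptide was detected by time-resolved fluorescence with Eu-N1-labelled PY100 antibody.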

T1 sequence (Q9UM73 19-1620): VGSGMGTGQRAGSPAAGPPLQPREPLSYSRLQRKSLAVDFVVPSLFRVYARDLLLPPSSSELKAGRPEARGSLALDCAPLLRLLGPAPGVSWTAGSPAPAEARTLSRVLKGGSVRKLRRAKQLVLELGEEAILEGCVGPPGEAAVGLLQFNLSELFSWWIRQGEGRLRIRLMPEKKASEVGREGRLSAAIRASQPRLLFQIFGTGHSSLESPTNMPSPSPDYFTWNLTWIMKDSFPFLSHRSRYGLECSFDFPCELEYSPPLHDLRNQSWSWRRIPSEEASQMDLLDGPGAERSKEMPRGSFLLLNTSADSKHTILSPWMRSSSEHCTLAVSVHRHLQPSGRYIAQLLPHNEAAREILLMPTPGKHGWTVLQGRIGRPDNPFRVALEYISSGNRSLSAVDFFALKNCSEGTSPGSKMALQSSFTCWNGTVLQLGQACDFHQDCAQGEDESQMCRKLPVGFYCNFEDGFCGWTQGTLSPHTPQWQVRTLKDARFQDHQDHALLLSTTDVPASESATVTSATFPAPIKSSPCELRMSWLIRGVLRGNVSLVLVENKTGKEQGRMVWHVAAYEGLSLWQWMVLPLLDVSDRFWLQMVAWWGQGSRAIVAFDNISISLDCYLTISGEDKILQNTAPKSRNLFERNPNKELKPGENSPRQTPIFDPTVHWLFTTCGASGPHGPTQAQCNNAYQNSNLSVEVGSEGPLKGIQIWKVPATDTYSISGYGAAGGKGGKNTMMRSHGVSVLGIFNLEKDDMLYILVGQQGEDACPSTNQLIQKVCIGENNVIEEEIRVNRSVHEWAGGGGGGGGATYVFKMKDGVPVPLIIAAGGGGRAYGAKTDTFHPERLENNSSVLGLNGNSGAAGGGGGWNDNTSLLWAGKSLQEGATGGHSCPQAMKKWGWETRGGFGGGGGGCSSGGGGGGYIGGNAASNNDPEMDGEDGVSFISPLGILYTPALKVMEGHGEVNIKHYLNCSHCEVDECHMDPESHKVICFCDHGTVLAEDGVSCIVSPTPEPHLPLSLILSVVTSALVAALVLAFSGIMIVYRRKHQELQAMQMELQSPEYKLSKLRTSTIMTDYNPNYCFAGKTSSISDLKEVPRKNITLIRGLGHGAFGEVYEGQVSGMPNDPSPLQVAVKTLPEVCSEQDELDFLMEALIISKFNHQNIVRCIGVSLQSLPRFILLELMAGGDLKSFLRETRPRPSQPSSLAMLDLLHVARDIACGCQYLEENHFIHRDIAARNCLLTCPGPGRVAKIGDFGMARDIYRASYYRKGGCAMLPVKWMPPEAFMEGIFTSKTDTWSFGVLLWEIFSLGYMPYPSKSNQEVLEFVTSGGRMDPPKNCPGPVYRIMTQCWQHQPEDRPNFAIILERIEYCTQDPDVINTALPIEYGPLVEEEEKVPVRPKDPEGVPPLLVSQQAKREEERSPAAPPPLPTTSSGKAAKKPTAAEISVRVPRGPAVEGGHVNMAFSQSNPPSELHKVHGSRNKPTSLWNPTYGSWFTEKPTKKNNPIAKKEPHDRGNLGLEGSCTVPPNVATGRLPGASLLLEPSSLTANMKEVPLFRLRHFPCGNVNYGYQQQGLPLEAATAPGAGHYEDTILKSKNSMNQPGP

For the compound `CN(c1ccccc1-c1ccc2cnc(Nc3ccc(C4CCN(CCO)CC4)cc3)nn12)S(C)(=O)=O` [Example 669, N-[2-(2-{4-[1-(2-Hydroxy-ethyl)-piperidin-4-yl]-phenylamino}-pyrrolo[2,1-f][1,2,4]triazin-7-yl)-phenyl]-N-methyl-methanesulfonamide], the IC50 at ALK and on JAK2 was < 100 nM in each case.

Take `CC(C)(C)NS(=O)(=O)c1cccc(-c2ccc3cnc(Nc4ccc(C5CCN(CCO)CC5)cc4)nn23)c1` [Example 670, N-tert-Butyl-3-(2-{4-[1-(2-hydroxy-ethyl)-piperidin-4-yl]-phenylamino}-pyrrolo[2,1-f][1,2,4]triazin-7-yl)-benzenesulfonamide]: the IC50 on ALK is 100 to 1000 nM; at JAK2, < 100 nM.

Take `COc1ccc(-c2ccc3cnc(Nc4ccc(C5CCN(CCO)CC5)cc4)nn23)cn1` [Example 671, 2-(4-{4-[7-(6-Methoxy-pyridin-3-yl)-pyrrolo[2,1-f][1,2,4]triazin-2-ylamino]-phenyl}-piperidin-1-yl)-ethanol]: the IC50 at ALK is 100 to 1000 nM; at JAK2, < 100 nM.

Turning to `COc1ccccc1-c1ccc2cnc(Nc3ccc4c(c3)C(NC(=O)OC(C)(C)C)C(O)C4)nn12` (stereo not drawn) [Example 673, {2-Hydroxy-6-[7-(2-methoxy-phenyl)-pyrrolo[2,1-f][1,2,4]triazin-2-ylamino]-indan-1-yl}-carbamic acid tert-butyl ester], the IC50 on ALK was 100 to 1000 nM; at JAK2, < 100 nM.

On to `CC(C)(C)OC(=O)N1CCC=C(c2ccc3cnc(Nc4ccc(C5CCN(CC(N)=O)CC5)cc4)nn23)C1` [Example 675, 5-{2-[4-(1-Carbamoylmethyl-piperidin-4-yl)-phenylamino]-pyrrolo[2,1-f][1,2,4]triazin-7-yl}-3,6-dihydro-2H-pyridine-1-carboxylic acid tert-butyl ester], for which the IC50 is 1000 to 10000 nM at ALK and < 100 nM on JAK2.

Consider `COc1cc(-c2ccc3cnc(Nc4ccc(C5CCN(C)CC5)cc4)nn23)ccn1` [Example 676, [7-(2-Methoxy-pyridin-4-yl)-pyrrolo[2,1-f][1,2,4]triazin-2-yl]-[4-(1-methyl-piperidin-4-yl)-phenyl]-amine], for which the values for the IC50 on ALK and at JAK2 were 100 to 1000 nM and < 100 nM, respectively.

Regarding `O=S(=O)(c1cccc(-c2ccc3cnc(Nc4ccc(C5CCN(CCO)CC5)cc4)nn23)c1)N1CCOCC1` [Example 677, 2-[4-(4-{7-[3-(Morpholine-4-sulfonyl)-phenyl]-pyrrolo[2,1-f][1,2,4]triazin-2-ylamino}-phenyl)-piperidin-1-yl]-ethanol], the results for the IC50 on ALK and on JAK2 were 100 to 1000 nM and < 100 nM, respectively.

As to `O=S(=O)(c1cccc(-c2ccc3cnc(Nc4ccc(C5CCN(CCO)CC5)cc4)nn23)c1)N1CCCC1` [Example 678, 2-[4-(4-{7-[3-(Pyrrolidine-1-sulfonyl)-phenyl]-pyrrolo[2,1-f][1,2,4]triazin-2-ylamino}-phenyl)-piperidin-1-yl]ethanol], the figures for the IC50 at ALK and at JAK2 were 100 to 1000 nM and < 100 nM, respectively.

Regarding `CS(=O)(=O)c1ccc(-c2ccc3cnc(Nc4ccc(C5CCN(CCO)CC5)cc4)nn23)cc1` [Example 679, 2-(4-{4-[7-(4-Methanesulfonyl-phenyl)-pyrrolo[2,1-f][1,2,4]triazin-2-ylamino]-phenyl}-piperidin-1-yl)-ethanol], the IC50 on ALK and on JAK2 was < 100 nM throughout.

`CC(C)(C)NS(=O)(=O)c1cccc(-c2ccc3cnc(Nc4ccc5c(c4)C(N)C(O)C5)nn23)c1` (stereo not drawn) [Example 680, 3-[2-(3-Amino-2-hydroxy-indan-5-ylamino)-pyrrolo[2,1-f][1,2,4]triazin-7-yl]-N-tert-butyl-benzenesulfonamide]: the IC50 at ALK is 100 to 1000 nM; on JAK2 it was < 100 nM.

`COc1ccccc1-c1ccc2cnc(Nc3ccc4c(c3)C(N)C(O)C4)nn12` (stereo not drawn) [Example 681, 1-Amino-6-[7-(2-methoxy-phenyl)-pyrrolo[2,1-f][1,2,4]triazin-2-ylamino]-indan-2-ol]: the IC50 on ALK is 100 to 1000 nM; on JAK2, < 100 nM.

Regarding `COc1ccc(-c2ccc3cnc(Nc4ccc(C5CCN(CC(N)=O)CC5)cc4)nn23)c(OC)n1` [Example 682, 2-(4-{4-[7-(2,6-Dimethoxy-pyridin-3-yl)-pyrrolo[2,1-f][1,2,4]triazin-2-ylamino]-phenyl}-piperidin-1-yl)-acetamide], the IC50 on ALK and at JAK2 was < 100 nM throughout.

In the case of `COc1cc(C2CCNCC2)ccc1Nc1ncc2ccc(-c3cccc(S(=O)(=O)NC(C)(C)C)c3)n2n1` [Example 691, N-tert-Butyl-3-[2-(2-methoxy-4-piperidin-4-yl-phenylamino)-pyrrolo[2,1-f][1,2,4]triazin-7-yl]-benzenesulfonamide], the values for the IC50 at ALK and at JAK2 were < 100 nM and 100 to 1000 nM, respectively.

On to `COc1cc(C2CCN(C)CC2)ccc1Nc1ncc2ccc(-c3cccc(S(=O)(=O)NC(C)(C)C)c3)n2n1` [Example 692, N-tert-Butyl-3-{2-[2-methoxy-4-(1-methyl-piperidin-4-yl)-phenylamino]-pyrrolo[2,1-f][1,2,4]triazin-7-yl}-benzenesulfonamide], for which the IC50 on ALK and at JAK2 was < 100 nM each time.

Regarding `COc1cc(C2CCN(CC(N)=O)CC2)ccc1Nc1ncc2ccc(-c3cccc(S(=O)(=O)NC(C)(C)C)c3)n2n1` [Example 693, 2-(4-{4-[7-(3-tert-Butylsulfamoylphenyl)pyrrolo[2,1-f][1,2,4]triazin-2-ylamino]-3-methoxyphenyl)piperidin-1-yl)-acetamide], the IC50 on ALK was < 100 nM; on JAK2, 100 to 1000 nM.

Take `COc1cc(C2CCN(CCO)CC2)ccc1Nc1ncc2ccc(-c3cccc(S(=O)(=O)NC(C)(C)C)c3)n2n1` [Example 694, N-tert-Butyl-3-(2-{4-[1-(2-hydroxy-ethyl)-piperidin-4-yl]-2-methoxy-phenylamino}-pyrrolo[2,1-f][1,2,4]triazin-7-yl)-benzenesulfonamide]: the IC50 is < 100 nM at ALK and 100 to 1000 nM at JAK2.

For `COc1cc(C2CCN(C[C@H](O)CO)CC2)ccc1Nc1ncc2ccc(-c3cccc(S(=O)(=O)NC(C)(C)C)c3)n2n1` [Example 695, N-tert-Butyl-3-(2-{4-[1-((S)-2,3-dihydroxy-propyl)-piperidin-4-yl]-2-methoxy-phenylamino}-pyrrolo[2,1-f][1,2,4]triazin-7-yl)-benzenesulfonamide], the IC50 at ALK was < 100 nM; at JAK2 it was 100 to 1000 nM.

As to `COc1cc(C2CCN(C)CC2)ccc1Nc1ncc2ccc(-c3cccc(S(=O)(=O)NC4CC4)c3)n2n1` [Example 696], the IC50 was < 100 nM on ALK and 100 to 1000 nM on JAK2.

`COc1cc(C2CCN(CC(N)=O)CC2)ccc1Nc1ncc2ccc(-c3cccc(S(=O)(=O)NC4CC4)c3)n2n1` [Example 697, 2-(4-{4-[7-(3-Cyclopropylsulfamoyl-phenyl)-pyrrolo[2,1-f][1,2,4]triazin-2-ylamino]-3-methoxy-phenyl}-piperidin-1-yl)-acetamide]: the IC50 on ALK is < 100 nM; on JAK2 it was 100 to 1000 nM.

As to `COc1cc(C2CCN(CCO)CC2)ccc1Nc1ncc2ccc(-c3cccc(S(=O)(=O)NC4CC4)c3)n2n1` [Example 698], the figures for the IC50 on ALK and at JAK2 were < 100 nM and 100 to 1000 nM, respectively.

Take `COc1cc2c(cc1Nc1ncc3ccc(-c4cccc(S(=O)(=O)NC(C)(C)C)c4)n3n1)CCN(CCO)CC2` [Example 699]: the IC50 was < 100 nM at ALK and 100 to 1000 nM on JAK2.
